# Experimental data as given in ChEMBL document CHEMBL5316293, “Novel Small-Molecule PD-L1 Inhibitor Induces PD-L1 Internalization and Optimizes the Immune Microenvironment” (J Med Chem, 2023).
# What was measured:
# [1] = biological target: Programmed cell death protein 1/Programmed cell death 1 ligand 1 (Homo sapiens, UniProt Q9NZQ7); test: Inhibition of europium-labeled PD-1/biotinylated PD-L1 interaction (unknown origin) preincubated for 15 mins with PD-L1 followed by PD-1 addition and measured after 90 mins by TR-FRET assay; type: protein-complex assay
# [2] = Antitumor activity against humanized mouse LLC-hPD-L1 cells implanted in hPD-1 knockin C57BL/6 mouse assessed as tumor growth inhibition at 10 mg/kg, ip administered for 12 days starting from day 7 post tumor implantation and measured every 2 days relative to control; type: functional; conditions: LLC-hPD-L1, 288 h, time 12 day, read-out: TGI
# Sequence of Programmed cell death protein 1/Programmed cell death 1 ligand 1 (Q15116 whole entry): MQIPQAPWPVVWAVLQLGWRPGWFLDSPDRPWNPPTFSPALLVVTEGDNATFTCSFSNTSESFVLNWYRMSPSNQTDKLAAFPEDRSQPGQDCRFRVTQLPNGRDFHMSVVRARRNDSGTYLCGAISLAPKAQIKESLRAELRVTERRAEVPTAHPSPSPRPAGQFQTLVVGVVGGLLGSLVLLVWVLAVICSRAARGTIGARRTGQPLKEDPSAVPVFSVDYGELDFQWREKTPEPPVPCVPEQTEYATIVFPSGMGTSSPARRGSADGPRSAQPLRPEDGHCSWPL
# Sequence of Programmed cell death protein 1/Programmed cell death 1 ligand 1 (Q9NZQ7 whole entry): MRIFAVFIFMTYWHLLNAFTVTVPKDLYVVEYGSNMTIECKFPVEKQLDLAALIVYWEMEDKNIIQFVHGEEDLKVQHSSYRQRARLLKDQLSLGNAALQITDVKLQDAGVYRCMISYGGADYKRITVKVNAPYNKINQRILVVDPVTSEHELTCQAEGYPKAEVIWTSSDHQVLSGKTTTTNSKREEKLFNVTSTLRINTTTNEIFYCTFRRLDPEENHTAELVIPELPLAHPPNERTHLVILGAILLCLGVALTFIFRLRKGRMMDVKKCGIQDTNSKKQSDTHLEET
Structure (SMILES),IC50 [1],inhibition in vivo at 10 mg/kg [2]
Cc1c(-c2ccccc2)cccc1N1C(=O)c2ccc(C(=O)N3CCN(C(C)C)CC3)cc2C1=O,5.13 µM,
Cc1c(-c2ccccc2)cccc1N1C(=O)c2ccc(OCc3ccc(C(C)C)cc3)cc2C1=O,> 10 µM,
Cc1c(-c2ccccc2)cccc1N1C(=O)c2ccc(CNCCO)cc2C1=O,0.342 µM,
Cc1c(-c2ccccc2)cccc1N1C(=O)c2ccc(C(=O)NCCO)cc2C1=O,1.89 µM,
COc1cc2c(cc1CN[C@@H](CO)C(=O)OC(C)(C)C)C(=O)N(c1cccc(-c3ccccc3)c1C)C2=O,0.296 µM,
CC(=O)COc1ccc2c(c1)C(=O)N(c1cccc(-c3ccccc3)c1C)C2=O,1.06 µM,
CC(=O)COc1ccc2c(c1)C(=O)N(c1cccc(-c3ccccc3)c1C#N)C2=O,0.249 µM,
Cc1c(-c2ccccc2)cccc1N1C(=O)c2ccc(CN3CCC[C@H]3C(N)=O)cc2C1=O,2.77 µM,
Cc1c(-c2ccccc2)cccc1N1C(=O)c2ccc(CN3CCC[C@H]3CO)cc2C1=O,2.21 µM,
CCOC(=O)[C@H](CO)NCc1ccc2c(c1)C(=O)N(c1cccc(-c3ccccc3)c1C)C2=O,2.38 µM,
Cc1c(-c2ccccc2)cccc1N1C(=O)c2ccc(CNCCN)cc2C1=O,0.912 µM,
Cc1c(-c2ccccc2)cccc1N1C(=O)c2ccc(OCc3cccc(C#N)c3)cc2C1=O,> 10 µM,
N#Cc1c(-c2ccccc2)cccc1N1C(=O)c2ccc(C(=O)N3CCOCC3)cc2C1=O,6.69 µM,
N#Cc1cccc(COc2ccc3c(c2)C(=O)N(c2cccc(-c4ccccc4)c2C#N)C3=O)c1,0.395 µM,
Cc1c(-c2ccccc2)cccc1N1C(=O)c2ccc(CN3CCCC[C@H]3C(=O)O)cc2C1=O,2.11 µM,
Cc1c(-c2ccccc2)cccc1N1C(=O)c2ccc(CN3CCOCC3)cc2C1=O,2.52 µM,
Cc1c(-c2ccccc2)cccc1N1C(=O)c2ccc(C(=O)N3CCOCC3)cc2C1=O,1.95 µM,
Cc1c(-c2ccccc2)cccc1N1C(=O)c2ccc(CNCCNC(=O)OC(C)(C)C)cc2C1=O,2.4 µM,
N#Cc1ccc(COc2ccc3c(c2)C(=O)N(c2cccc(-c4ccccc4)c2C#N)C3=O)cc1,> 10 µM,
COc1nc(OCc2cccc(-c3ccccc3)c2C)ccc1CNCCNC(C)=O,,39.8%

Structure (SMILES),IC50 [1],inhibition in vivo at 10 mg/kg [2]
COc1cc2c(cc1CNCCNC(C)=O)C(=O)N(c1cccc(-c3ccccc3)c1C)C2=O,0.0462 µM,
CC(=O)NCCNCc1ccc2c(c1)C(=O)N(Cc1cccc(-c3ccccc3)c1C)C2=O,5.41 µM,
COc1cc2c(cc1CN[C@@H](C)C(=O)O)C(=O)N(c1cccc(-c3ccccc3)c1C)C2=O,0.0169 µM,
Cc1c(-c2ccccc2)cccc1N1C(=O)c2ccc(CN[C@@H](CO)C(=O)O)cc2C1=O,0.156 µM,
Cc1c(-c2ccccc2)cccc1N1C(=O)c2cc(Br)c(CN3CCOCC3)cc2C1=O,> 10 µM,
Cc1c(-c2ccccc2)cccc1N1C(=O)c2ccc(OCc3ccccc3)cc2C1=O,> 10 µM,
Cc1c(-c2ccccc2)cccc1N1C(=O)c2cc(Br)c(CN3CCCC[C@H]3C(=O)O)cc2C1=O,> 10 µM,
COc1cc2c(cc1CNCC(=O)O)C(=O)N(c1cccc(-c3ccccc3)c1C)C2=O,0.0359 µM,
Cc1c(-c2ccccc2)cccc1N1C(=O)c2ccc(CNC3CCOCC3)cc2C1=O,0.683 µM,
COc1cc2c(cc1CNCCO)C(=O)N(c1cccc(-c3ccccc3)c1C)C2=O,0.0156 µM,
Cc1c(CN2C(=O)c3ccc(CN4CCCC[C@H]4C(=O)O)cc3C2=O)cccc1-c1ccccc1,4.63 µM,
Cc1c(-c2ccccc2)cccc1N1C(=O)c2ccc(CN3CCC[C@H]3C(=O)O)cc2C1=O,1.42 µM,
CC(=O)NCCNCc1ccc2c(c1)C(=O)N(c1cccc(-c3ccccc3)c1C)C2=O,0.59 µM,
N#Cc1c(-c2ccccc2)cccc1N1C(=O)c2ccc(C(=O)NCCO)cc2C1=O,3.67 µM,
Cc1c(CN2C(=O)c3ccc(CNCCO)cc3C2=O)cccc1-c1ccccc1,3.84 µM,
Cc1c(-c2ccc3c(c2)OCCO3)cccc1N1C(=O)c2ccc(C(=O)NCCO)cc2C1=O,0.745 µM,
N#Cc1c(-c2ccc3c(c2)OCCO3)cccc1N1C(=O)c2ccc(C(=O)NCCO)cc2C1=O,1.17 µM,
Cc1c(-c2ccccc2)cccc1N1C(=O)c2ccc(CN(C)CCO)cc2C1=O,0.917 µM,
Cc1c(-c2ccccc2)cccc1N1C(=O)c2ccc(CNCCNS(C)(=O)=O)cc2C1=O,0.968 µM,
COc1cc2c(cc1CN1CCC[C@H]1C(=O)O)C(=O)N(c1cccc(-c3ccccc3)c1C)C2=O,0.139 µM,
